Results from ChEMBL document CHEMBL1144866, “Surface descriptors for protein-ligand affinity prediction” (J Med Chem, 2003).

test: Inhibitory activity against glycogen phosphorylase, activity expressed as -logKi

Going from COC(=O)N[C@]1(C(N)=O)O[C@H](CO)[C@@H](O)[C@H](O)[C@H]1O to NC(=O)N[C@H]1O[C@H](CO)[C@@H](O)[C@H](O)[C@H]1O, the “-Log Ki” value falls from 4.796 to 3.854.

Compared with OCC1OC(CO)C(O)C(O)C1O (configuration not stated), NCC1OC(CO)C(O)C(O)C1O (stereo in doubt; form 1) is lower in “-Log Ki” value: 2.824 for the first, 1.462 for the second.

O=C(CCl)N[C@H]1O[C@H](CO)[C@@H](O)[C@H](O)[C@H]1O and CCC(=O)N[C@H]1O[C@H](CO)[C@@H](O)[C@H](O)[C@H]1O are within 0.2 log units of each other in “-Log Ki” value: 4.347 for the first, 4.409 for the second.

First: CCCC(=O)N[C@H]1O[C@H](CO)[C@@H](O)[C@H](O)[C@H]1O
Second: O=C(CBr)N[C@H]1O[C@@H](CO)[C@@H](O)[C@H](O)[C@@H]1O
The “-Log Ki” value of the first is lower: 4.027 for the first, 4.357 for the second.

Compared with O=C(N[C@H]1O[C@H](CO)[C@@H](O)[C@H](O)[C@H]1O)c1ccccc1, CC(=O)N[C@H]1O[C@H](CO)[C@@H](O)[C@H](O)[C@H]1O is higher in “-Log Ki” value: 4.092 for the first, 4.495 for the second.

Compared with CC(=O)NCC(=O)N[C@H]1O[C@H](CO)[C@@H](O)[C@H](O)[C@H]1O, NCC(=O)N[C@H]1O[C@@H](CO)[C@@H](O)[C@H](O)[C@@H]1O is higher in “-Log Ki” value: 3.004 for the first, 3.432 for the second.

Going from NN1C(=O)N[C@@]2(O[C@@H](CO)[C@@H](O)[C@H](O)[C@@H]2O)C1=O to NC(=O)C1OC(CO)C(O)C(O)C1O (configuration not stated), the “-Log Ki” value falls from 3.836 to 3.357.

First: CNC(=O)C1OC(CO)C(O)C(O)C1O (configuration not stated)
Second: NCC1OC(CO)C(O)C(O)C1O (stereo in doubt; form 2)
The “-Log Ki” value of the first is higher: 3.796 for the first, 1.775 for the second.

With CS(=O)(=O)OCC1OC(CO)C(O)C(O)C1O (configuration not stated) the “-Log Ki” value was 2.319.
